This is an account of results in ChEMBL document CHEMBL3525974 (Drug Metab Dispos, 2012).

For orientation: Cmax means the highest concentration seen after dosing.

Assay type in all cases: ADME
Series [1] has as its system Liver microsome. Put plainly: Retention time in human liver microsomes at 30 uM preincubated for 5 mins prior NADPH addition measured after 50 mins by UPLC-TOFMS analysis. Background: Microsomes from liver hold many membrane-bound enzymes, among them those of drug oxidation.
Series [2] has as its system Liver microsome. Put plainly: Drug metabolism in human liver microsomes treated with lopinavir at 30 uM preincubated for 5 mins prior NADPH addition measured after 50 mins by MS/MS spectroscopy.
Series [3] deals with Plasma. Put plainly: Maximum plasma concentration in healthy human at 400 mg. The arrangement: dose 400 mg.
Series [4] concerns Plasma. Briefly: Maximum plasma concentration in healthy human at 400 mg co-administered with 50 mg ritonavir. On the set-up: dose 400 mg.

Compound `CC(C)[C@@H](C(=O)N[C@@H](Cc1ccccc1)C[C@H](O)[C@H](Cc1ccccc1)NC(=O)/C=N/NC(N)=O)N1CCCNC1=O` had a Retention_time in series [1] of 4.99 min. For the same compound, the Drug metabolism entry in series [2] is “metabolite_detected”.

For the compound `Cc1cccc(C)c1OCC(=O)N[C@@H](Cc1ccccc1)[C@@H](O)C[C@H](Cc1ccccc1)NC(=O)[C@H](C(C)C)N1CCCNC1=O` [LOPINAVIR], the highest concentration (Cmax) in series [3] is 100 ng/mL; in series [4], 5500 ng/mL.
